Assay results: paper PMC3152678 (Bioorganic & medicinal chemistry, 2011)

Columns and labels:
LasR [1] = target: T1, LasR (Pseudomonas aeruginosa, UniProt P25084); experiment: LasR reporter gene agonism assay in E. coli DH5α; type: cell-based; conditions: E. coli LasR reporter strain
LasR [2] = target: T1, LasR; experiment: LasR reporter gene agonism assay in P. aeruginosa PA01 MW1; type: cell-based; conditions: P. aeruginosa LasR reporter strain
TraR [3] = target: T2, TraR (Agrobacterium tumefaciens, UniProt P33905); type: cell-based; conditions: dose response
TraR [4] = target: T2, TraR; experiment: TraR antagonism assay in A. tumefaciens WCF; type: cell-based; conditions: 10 μM, in the presence of OOHL
immune response = conditions: mice; cited from earlier work
[5] = type: physicochemical; conditions: Luria-Bertani medium, 37 °C; pseudo first-order
LasR [6] = target: T1, LasR; experiment: LasR reporter gene antagonism assay in E. coli DH5α; type: cell-based; conditions: E. coli reporter strain
LuxR = LuxR (Aliivibrio fischeri, UniProt P35327); experiment: LuxR antagonism assay in V. fischeri ESI 114; type: cell-based, Vibrio fischeri
[7] = over the course of a week; cited from earlier work

T1 sequence (P25084 whole entry): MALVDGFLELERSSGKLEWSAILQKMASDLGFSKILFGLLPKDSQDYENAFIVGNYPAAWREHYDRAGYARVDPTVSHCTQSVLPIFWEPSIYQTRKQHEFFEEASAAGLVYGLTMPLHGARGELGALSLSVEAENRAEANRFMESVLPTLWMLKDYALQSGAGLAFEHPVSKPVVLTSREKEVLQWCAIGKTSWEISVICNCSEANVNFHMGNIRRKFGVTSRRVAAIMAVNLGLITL
T2 sequence (P33905 whole entry): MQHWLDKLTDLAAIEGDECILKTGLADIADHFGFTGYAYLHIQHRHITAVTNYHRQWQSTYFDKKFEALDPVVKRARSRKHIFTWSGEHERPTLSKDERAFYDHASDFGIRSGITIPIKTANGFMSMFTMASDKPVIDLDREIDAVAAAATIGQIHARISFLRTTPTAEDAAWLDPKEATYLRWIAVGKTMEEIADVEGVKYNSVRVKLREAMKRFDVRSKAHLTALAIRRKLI
LuxR, sequence (P35327 whole entry): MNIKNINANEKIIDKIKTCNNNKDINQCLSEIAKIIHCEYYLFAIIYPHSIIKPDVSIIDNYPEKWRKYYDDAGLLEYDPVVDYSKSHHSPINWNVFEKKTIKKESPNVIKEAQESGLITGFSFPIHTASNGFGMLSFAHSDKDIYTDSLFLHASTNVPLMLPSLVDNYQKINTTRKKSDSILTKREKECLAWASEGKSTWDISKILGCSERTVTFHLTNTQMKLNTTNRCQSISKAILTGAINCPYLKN

CCCCCCCCCCCC(=O)N[C@H]1CCSC1=O [Compound 23, N-dodecanoyl thiolactone]
EC50 fold higher / fold less active than OdDHL, E. coli LasR (LasR [1]): ~ 100 fold | EC50 fold higher / fold less active than OdDHL, P. aeruginosa LasR (LasR [2]): ~ 10 fold

CCCC(=O)CC(=O)N[C@H]1CCSC1=O [Compound 12]
EC50 fold higher / fold less active than OdDHL, E. coli LasR (LasR [1]): ~ 10 fold | EC50 fold higher / fold less active than OdDHL, P. aeruginosa LasR (LasR [2]): ~ 10 fold

CCCCCC(=O)CC(=O)N[C@H]1CCSC1=O [Compound 18]
fold less active than OOHL (TraR agonism) (TraR [3]): 100 fold

CCCCCC(=O)N[C@H]1CCSC1=O [Compound 20, N-hexanoyl thiolactone]
TraR agonism in the antagonism assay (more than OOHL alone) (TraR [4]): over 70%

CCCCCCCCCC(=O)CC(=O)N[C@H]1CCSC1=O [Compound 15]
times less of an immune response than the native OdDHL (immune response): approximately 40 times | slope of natural log of percent of positive control vs time [5]: −0.01025 ± 0.0004

CCCCCCCC(=O)N[C@H]1CCSC1=O [Compound 22, N-octanoyl L-thiolactone]
fold higher concentration than OdDHL to antagonize LasR by 50% (LasR [6]): 10 fold | fold lower concentration than OHHL to antagonize LuxR by 50% (LuxR): 10 fold

COc1ccc(CC(=O)NC2CCSC2=O)cc1 (stereo not shown) [Compound 28]
TraR agonism in the antagonism assay (more than OOHL alone) (TraR [4]): 24%

COc1ccc(CC(=O)N[C@H]2CCSC2=O)cc1 [Compound 29]
agonistic activity in the TraR antagonism assay relative to OOHL (TraR [4]): 2 ×

CCCCCCCCCC(=O)CC(=O)N[C@H]1CCOC1=O [OdDHL, N-(3-oxo)-dodecanoyl HL, reference compound]
slope of natural log of percent of positive control vs time [5]: −0.01399 ± 0.0006 | racemization of the chiral center [7]: less than 5%

O=C(Cc1ccc(Br)cc1)N[C@H]1CCSC1=O [Compound 31]
TraR agonism in the antagonism assay (more than OOHL alone) (TraR [4]): 60%

CCCC(=O)N[C@H]1CCSC1=O [Compound 19]
TraR agonism in the antagonism assay (more than OOHL alone) (TraR [4]): over 70%
